Data from patent US12509469B2, “Compositions and methods for the treatment of pain and dependence disorders” (Ripple Therapeutics Corporation, priority 2019, dated 2025).

Columns and labels:
[1] = Drug release from heat-molded pellets in phosphate buffered saline (PBS); type: physicochemical; details: heat-molded pellet, 37° C., agitation at 115 rpm, HPLC
Procedure: Drug release from heat-molded pellets of Compound 1 (FIG. 1A) was assessed in phosphate buffered saline (PBS). Heat-molded pellets (FIG. 1B) were placed in 20 ml glass vials and 2 ml of release buffer was added. Samples were incubated at 37° C. with constant agitation at 115 rpm. Release buffer was sampled and fully replaced with 2 ml of fresh buffer daily with the exception of days 5, 6, 12, 13, and 14 (FIG. 1C). Samples were analyzed by high performance liquid chromatography (HPLC) to quantify drug products (FIG. 1D). Cumulative release was calculated as a percentage of total mass of starting pellets and was plotted over time.
Drug release from heat-molded pellets of Compound 3-7 and Compound 9-12 were assessed in phosphate buffered saline (PBS). Heat-molded pellets were placed in 20 ml glass vials and 2 ml of release buffer was added. Samples were incubated at 37° C. with constant agitation at 115 rpm. Release buffer was sampled and fully replaced with 2 ml of fresh buffer on days 1, 3, 7, 10, and 14. Samples were analyzed by high performance liquid chromatography (HPLC) to quantify drug products. Cumulative release was calculated as a percentage of total mass of starting pellets and was plotted over time.

[2] = Heat processing of compounds: pellet formation by heat molding; type: physicochemical; details: for Pellet formation?: heat molding, cylindrical mold ~1 mm in height x 1 mm in diameter; for Pellet formation by heat molding (result in words): heat molding 10° C. to 30° C. above thermal transition, pressed into cylindrical mold
Procedure: Compounds were formed into pellets by heat molding. Powders of Compound 1-7 and Compounds 9-12 were processed at a temperature from between about 10° C. to 30° C. above their thermal transitions (e.g., glass transition temperature (Tg) for amorphous powders or melting point (Tm) for crystalline powders) of the given compound (e.g., from about 70° C. (Compound 9) to about 220° C. (Compound 2)), and pressed into a cylindrical mold of ˜1 mm in height×1 mm in diameter. Light microscopy was used to capture images of the heat-formed pellets.
These pellets had the appropriate processing properties to be tested as articles for drug delivery applications.
Compounds 16, 22, and 23 were also tested for pellet formation using a similar method as compounds 1-7 and 9-12. […] The recovered form was soft and tacky and could not be easily handled.

Row | Structure (SMILES) | Release in phosphate buffered saline (PBS): near zero order for [1] | Pellet formation? [2] | Pellet formation by heat molding (result in words) [2]
1 | C=CCN1CC[C@]23c4c5ccc(OC(=O)CCCCC(=O)Oc6ccc7c8c6O[C@H]6C(=O)CC[C@@]9(O)[C@@H](C7)N(CC=C)CC[C@]869)c4O[C@H]2C(=O)CC[C@@]3(O)[C@H]1C5 [Compound 1, bis((4R,4aS,7aR,12bS)-3-allyl-4a-hydroxy-7-oxo-2,3,4,4a,5,6,7,7a-octahydro-1H-4,12-methanobenzofuro[3,2-e]isoquinolin-9-yl) adipate] | Near zero order for > 7 days | ✓ (FIG. 1B) | –
2 | O=C(CCCCC(=O)Oc1ccc2c3c1O[C@H]1C(=O)CC[C@@]4(O)[C@@H](C2)N(CC2CC2)CC[C@]314)Oc1ccc2c3c1O[C@H]1C(=O)CC[C@@]4(O)[C@@H](C2)N(CC2CC2)CC[C@]314 [Compound 2, bis((4R,4aS,7aR,12bS)-3-(cyclopropylmethyl)-4a-hydroxy-7-oxo-2,3,4,4a,5,6,7,7a-octahydro-1H-4,12-methanobenzofuro[3,2-e]isoquinolin-9-yl) adipate] | – | – | didn't form a viscous liquid that could be pressed into a pellet
3 | C=C1CC[C@@]2(O)[C@H]3Cc4ccc(OC(=O)CCCCC(=O)Oc5ccc6c7c5O[C@H]5C(=C)CC[C@@]8(O)[C@@H](C6)N(CC6CC6)CC[C@]758)c5c4[C@@]2(CCN3CC2CC2)[C@H]1O5 [Compound 3, bis((4R,4aS,7aS,12bS)-3-(cyclopropylmethyl)-4a-hydroxy-7-methylene-2,3,4,4a,5,6,7,7a-octohydro-1H-4,12-methanobenzofuro[3,2-e]isoquinolin-9-yl) adipate] | Near zero order for > 7 days | ✓ (FIG. 4B) | –
4 | C=CCN1CC[C@]23c4c5ccc(OC(=O)CCCCCCCCC(=O)Oc6ccc7c8c6O[C@H]6C(=O)CC[C@@]9(O)[C@@H](C7)N(CC=C)CC[C@]869)c4O[C@H]2C(=O)CC[C@@]3(O)[C@H]1C5 [Compound 4, bis((4R,4aS,7aR,12bS)-3-allyl-4a-hydroxy-7-oxo-2,3,4,4a,5,6,7,7a-octahydro-1H-4,12-methanobenzofuro[3,2-e]isoquinolin-9-yl) decanedioate] | Near zero order for > 7 days | ✓ (FIG. 5B) | –
5 | C=CCN1CC[C@]23c4c5ccc(OC(=O)OCC6CCC(COC(=O)Oc7ccc8c9c7O[C@H]7C(=O)CC[C@@]%10(O)[C@@H](C8)N(CC=C)CC[C@]97%10)CC6)c4O[C@H]2C(=O)CC[C@@]3(O)[C@H]1C5 (stereo partly drawn) [Compound 5, bis((4R,4aS,7aR,12bS)-3-allyl-4a-hydroxy-7-oxo-2,3,4,4a,5,6,7,7a-octahydro-1H-4,12-methanobenzofuro[3,2-e]isoquinolin-9-yl) (cyclohexane-1,4-diylbis(methylene)) bis(carbonate)] | Near zero order for > 7 days | – | –
6 | O=C(CCCCCCCCC(=O)Oc1ccc2c3c1O[C@H]1C(=O)CC[C@@]4(O)[C@@H](C2)N(CC2CC2)CC[C@]314)Oc1ccc2c3c1O[C@H]1C(=O)CC[C@@]4(O)[C@@H](C2)N(CC2CC2)CC[C@]314 [Compound 6, bis((4R,4aS,7aR,12bS)-3-(cyclopropylmethyl)-4a-hydroxy-7-oxo-2,3,4,4a,5,6,7,7a-octahydro-1H-4,12-methanobenzofuro[3,2-e]isoquinolin-9-yl) decanedioate] | Near zero order for > 7 days | ✓ (FIG. 7B) | –
7 | O=C(Oc1ccc2c3c1O[C@H]1C(=O)CC[C@@]4(O)[C@@H](C2)N(CC2CC2)CC[C@]314)C1CCC(C(=O)Oc2ccc3c4c2O[C@H]2C(=O)CC[C@@]5(O)[C@@H](C3)N(CC3CC3)CC[C@]425)CC1 (stereo partly drawn) [Compound 7, bis((4R,4aS,7aR,12bS)-3-(cyclopropylmethyl)-4a-hydroxy-7-oxo-2,3,4,4a,5,6,7,7a-octahydro-1H-4,12-methanobenzofuro[3,2-e]isoquinolin-9-yl) cyclohexane-1,4-dicarboxylate] | Near zero order for > 7 days | – | –
8 | O=C(Oc1ccc2c3c1O[C@H]1C(=O)CC[C@@]4(O)[C@@H](C2)N(CC2CC2)CC[C@]314)c1ccc(C(=O)Oc2ccc3c4c2O[C@H]2C(=O)CC[C@@]5(O)[C@@H](C3)N(CC3CC3)CC[C@]425)cc1 [Compound 8, bis((4R,4aS,7aR,12bS)-3-(cyclopropylmethyl)-4a-hydroxy-7-oxo-2,3,4,4a,5,6,7,7a-octahydro-1H-4,12-methanobenzofuro[3,2-e]isoquinolin-9-yl) terephthalate] | – | – | did not form a heat processed pellet
9 | O=C(CCCCCCCCCCCCC(=O)Oc1ccc2c3c1O[C@H]1C(=O)CC[C@@]4(O)[C@@H](C2)N(CC2CC2)CC[C@]314)Oc1ccc2c3c1O[C@H]1C(=O)CC[C@@]4(O)[C@@H](C2)N(CC2CC2)CC[C@]314 [Compound 9, bis((4R,4aS,7aR,12bS)-3-(cyclopropylmethyl)-4a-hydroxy-7-oxo-2,3,4,4a,5,6,7,7a-octahydro-1H-4,12-methanobenzofuro[3,2-e]isoquinolin-9-yl) tetradecanedioate] | Near zero order for > 7 days | ✓ (FIG. 10B) | –
10 | CCC(C)(CC(=O)Oc1ccc2c3c1O[C@H]1C(=O)CC[C@@]4(O)[C@@H](C2)N(CC2CC2)CC[C@]314)CC(=O)Oc1ccc2c3c1O[C@H]1C(=O)CC[C@@]4(O)[C@@H](C2)N(CC2CC2)CC[C@]314 [Compound 10, bis((4R,4aS,7aR,12bS)-3-(cyclopropylmethyl)-4a-hydroxy-7-oxo-2,3,4,4a,5,6,7,7a-octohydro-1H-4,12-methanobenzofuro[3,2-e]isoquinolin-9-yl) 3-ethyl-3-methylpentonedioate] | Near zero order for > 7 days | ✓ (FIG. 11B) | –
11 | O=C(OCCCCCCOC(=O)Oc1ccc2c3c1O[C@H]1C(=O)CC[C@@]4(O)[C@@H](C2)N(CC2CC2)CC[C@]314)Oc1ccc2c3c1O[C@H]1C(=O)CC[C@@]4(O)[C@@H](C2)N(CC2CC2)CC[C@]314 [Compound 11, bis((4R,4aS,7aR,12bS)-3-(cyclopropylmethyl)-4a-hydroxy-7-oxo-2,3,4,4a,5,6,7,7a-octohydro-1H-4,12-methanobenzofuro[3,2-e]isoquinolin-9-yl) hexane-1,6-diyl bis(carbonate)] | Near zero order for > 7 days | ✓ (FIG. 12B) | –
12 | O=C(OCC1CCC(COC(=O)Oc2ccc3c4c2O[C@H]2C(=O)CC[C@@]5(O)[C@@H](C3)N(CC3CC3)CC[C@]425)CC1)Oc1ccc2c3c1O[C@H]1C(=O)CC[C@@]4(O)[C@@H](C2)N(CC2CC2)CC[C@]314 (stereo partly drawn) [Compound 12, cyclohexane-1,4-diylbis(methylene) bis((4R,4aS,7aR,12bS)-3-(cyclopropylmethyl)-4a-hydroxy-7-oxo-2,3,4,4a,5,6,7,7a-octohydro-1H-4,12-methanobenzofuro[3,2-e]isoquinolin-9-yl) bis(carbonate)] | Near zero order for > 7 days | – | –
13 | COc1ccc2cc([C@H](C)C(=O)OCC3CCC(COC(=O)[C@@H](C)c4ccc5cc(OC)ccc5c4)CC3)ccc2c1 (stereo partly drawn) [Compound 16, cyclohexane-1,4-diylbis(methylene) (2S,2S)-bis(2-(6-methoxynaphthalen-2-yl)proponoote)] | – | – | deformed during the process of removal from the mold
14 | CCN[C@H]1C[C@H](C)S(=O)(=O)c2sc(S(=O)(=O)NC(=O)OCCCCCCCCOC(=O)NS(=O)(=O)c3cc4c(s3)S(=O)(=O)[C@@H](C)C[C@@H]4NCC)cc21 [Compound 22, 8-(((((4S,6S)-4-(ethylamino)-6-methyl-7,7-dioxido-5,6-dihydro-4H-thieno[2,3-b]thiopyron-2-yl)sulfonyl)carbamoyl)oxy)octyl (((4S,6S)-4-(ethylamino)-6-methyl-7,7-dioxido-5,6-dihydro-4H-thieno[2,3-b]thiopyron-2-yl)sulfonyl)carbomate] | – | – | Neither compound formed a viscous liquid that could be pressed into a pellet
